According to patent US12162881B2, “Forms and compositions of inhibitors of JAK2” (Ajax Therapeutics, Inc., priority 2021, dated 2024):
One block for each compound: values may come before it.

Tests used:
[1] = Variable relative humidity XRPD (VRH-XRPD); assay type: physicochemical
Method: XRPD patterns were collected with a PANalytical X'Pert PRO MPD diffractometer using an incident beam of Cu Kα radiation produced using a long, fine-focus source and a nickel filter. The diffractometer was configured using the symmetric Bragg-Brentano geometry. Data were collected and analyzed using Data Collector software v. 5.5. Prior to the analysis, a silicon specimen (NIST SRM 640f) was analyzed to verify the observed position of the Si 111 peak is consistent with the NIST-certified position. A specimen of the sample was packed in a nickel-coated copper well. Antiscatter slits (SS) were used to minimize the background generated by air. Soller slits for the incident and diffracted beams were used to minimize broadening from axial divergence. Diffraction patterns were collected using a scanning position-sensitive detector (X'Celerator) located 240 mm from the sample and Data Collector software v. 5.5.
An Anton Paar temperature-humidity chamber (THC) was used while collecting in-situ XRPD patterns as a function of humidity. The temperature of the specimen was changed with a Peltier thermoelectric device located directly under the specimen holder and monitored with a platinum-100 resistance sensor located in the specimen holder. The thermoelectric device was powered and controlled by an Anton Paar TCU 50 interfaced with Data Collector. The humidity was generated with an RH-200 manufactured by VTI Inc. and carried by a flow of nitrogen gas. The humidity was monitored by a HygroClip sensor manufactured by Rotronic located next to the specimen inside the THC.
VRH-XRPD analysis was conducted to help determine water activity boundary for the solid-state conversion between hydrated Form A and anhydrous Form B. This method was utilized due the observed high tendency of Compound 1 to form solvates, which precluded the use of solvent-mediated approach.
Overall, two VRH-XRPD experiments were conducted to qualitatively evaluate RH conditions leading to predominance of Form A over Form B and vice versa. The kinetic component was not assessed.
The first VRH-XRPD experiment was conducted with a goal of observing dehydration of hydrated Form A. An initial XRPD scan was, therefore, acquired on Form A equilibrated in-situ at ambient RH for 45 minutes, which at the time of the analysis was ˜30%. The XRPD pattern from this scan was consistent with Form A (FIG. 39, top).
XRPD patterns were collected throughout the course of the experiment, each with a 10 minute scan.
XRPD patterns were collected throughout the course of the experiment, each with a 10 minute scan. The XRPD patterns remained Form B until the RH reached approximately 60% RH, where Form A became the primary phase with some Form B remaining (FIG. 41, top two spectra). Further decrease of Form B was observed through the remainder of the 60% RH hold at which point the experiment ended (FIG. 41, bottom two spectra). Complete conversion to Form A from Form B was not observed under these conditions.

[2] = Disproportionation of Compound 2 (HCl salt) stirred in water; assay type: physicochemical; conditions: Form A obtained by disproportionation of Compound 2 in water (Example 11)
Method: An exemplary procedure for preparing Compound 1 Form A is as follows: Compound 1 Lot II (459.1 mg) was slurried in THF (4 mL). Concentrated HCl (154 μL, 2 equiv.) was added to the slurry. The off-white slurry rapidly changed to a yellow slurry. The slurry was stirred at ambient temperature for 1 day. Solids were collected by vacuum filtration and briefly dried under vacuum. The yellow material, assumed to be an HCl salt, was collected by vacuum filtration. The material (543.2 mg) was then suspended in H2O (5 mL) and stirred at ambient temperature for 2 days. Pale yellow solids were collected by vacuum filtration but appeared to still contain some HCl salt by XRPD. Solids were re-slurried in H2O (1 mL) at ambient temperature for additional 3 days. The off-white solids were collected by vacuum filtration and dried on filter until solids were no longer visibly damp.

[3] = biological target: T1, JAK2 (JH1domain-catalytic, Y1007F,Y1008F) kinase (Homo sapiens, UniProt O60674, Y1007F/Y1008F); assay: JAK2 Binding Assay; conditions: Compound 1 as prepared by Example 1
T1 construct: JAK2 (JH1domain-catalytic, Y1007F,Y1008F) kinase was expressed as N-terminal fusion; made in house; host or cells: transiently transfected HEK293 cells
Method: JAK2 (JH1domain-catalytic, Y1007F,Y1008F) kinase was expressed as N-terminal fusion to the DNA binding domain of NFkB in transiently transfected HEK293 cells and subsequently tagged with DNA for qPCR detection. Streptavidin-coated magnetic beads were treated with biotinylated small molecule ligands for 30 minutes at room temperature to generate affinity resins for kinase assays. The liganded beads were blocked with excess biotin and washed with blocking buffer (SeaBlock (Pierce), 1% BSA, 0.05% Tween 20, 1 mmol/L DTT) to remove unbound ligand and to reduce nonspecific phage binding. Binding reactions were assembled by combining kinases, liganded affinity beads, and test compounds in 1× binding buffer (1×PBS, 0.05% Tween 20, 0.1% BSA, 1 mmol/L DTT). Test compound was prepared as 111× stocks in 100% DMSO and directly diluted into the assay wells. All reactions were performed in polypropylene 384-well plates in a final volume of 0.02 mL. The assay plates were incubated at room temperature with shaking for 1 hour and the affinity beads were washed with wash buffer (1×PBS, 0.05% Tween 20). The beads were then re-suspended in elution buffer (1×PBS, 0.05% Tween 20, 0.5 μmol/L non-biotinylated affinity ligand) and incubated at room temperature with shaking for 30 minutes. The kinase concentration in the eluate was measured by qPCR.

[4] = Relative humidity jar experiments (XRPD); assay type: physicochemical
Method: Relative humidify jar experiments: Solid Compound 1 was placed in relative humidity jars containing saturated solutions of various salts to maintain a desired relative humidity level at 25° C. One sample of Compound 1 was placed in a jar containing P205 in an effort to maintain 0% RH.

[5] = Drying experiments of solvated Compound 1 materials (vacuum oven, XRPD); assay type: physicochemical; conditions: vac., RT, 1 d
Method: Drying experiments: Damp and solvated Compound 1 materials were placed in vacuum ovens set to ambient temperature or 80° C. for 1 day. Dried solids were analyzed by XRPD.

T1 sequence (O60674 849-1124 Y1007F/Y1008F limits assumed): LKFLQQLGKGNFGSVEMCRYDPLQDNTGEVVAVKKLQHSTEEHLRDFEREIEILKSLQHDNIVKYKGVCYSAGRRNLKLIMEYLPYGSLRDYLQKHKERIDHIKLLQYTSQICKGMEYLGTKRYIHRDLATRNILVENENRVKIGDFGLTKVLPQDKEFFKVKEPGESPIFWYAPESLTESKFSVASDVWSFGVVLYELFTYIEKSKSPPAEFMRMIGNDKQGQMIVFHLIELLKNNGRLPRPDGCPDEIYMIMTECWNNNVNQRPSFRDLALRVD

RH at which a small amount of Form B became visible ([1]; Experiment 1, RH incrementally decreased from ~85%): approximately 21 % RH | RH at which Form A was no longer visible ([1]; Experiment 1, decreasing RH): ~5 % RH | RH at which Form B became the predominant phase ([1]; Experiment 1, decreasing RH): 11 % RH | RH at which dehydration is expected to begin ([1]; VRH-XRPD and DVS data combined): 20 % RH | Form change on hold under nitrogen stream ([1]; overnight (17 h) hold under nitrogen stream (~0% RH)): converted to Form B | Stability relative to Compound 2 [2]: superior stability
SMILES: CC(=O)Nc1cc(Oc2cnc3nc(Nc4cc(C(F)(F)F)cn(C)c4=O)n(C)c3c2C#N)ccn1 [Compound 1 Form A, N-(4-((7-cyano-1-methyl-2-((1-methyl-2-oxo-5-(trifluoromethyl)-1,2-dihydropyridin-3-yl)amino)-1H-imidazo[4,5-b]pyridin-6-yl)oxy)pyridin-2-yl)acetamide]

Kd [3]: < 0.01 µM | XRPD Results after RH stress ([4]; 23% RH, RT, 6 d): B + minor A | XRPD Results after RH stress ([4]; 43% RH, RT, 6 d): A + B | XRPD Results after RH stress ([4]; 54% RH, RT, 6 d): A + B | XRPD Results after RH stress ([4]; P2O5 jar, 0% RH RT, 12 d): B + peaks
SMILES: CC(=O)Nc1cc(Oc2cnc3nc(Nc4cc(C(F)(F)F)cn(C)c4=O)n(C)c3c2C#N)ccn1 [Compound 1, N-(4-((7-cyano-1-methyl-2-((1-methyl-2-oxo-5-(trifluoromethyl)-1,2-dihydropyridin-3-yl)amino)-1H-imidazo[4,5-b]pyridin-6-yl)oxy)pyridin-2-yl)acetamide]

XRPD Result after drying ([5]; listed as Form E): Form H (some disorder)
SMILES: CC(=O)Nc1cc(Oc2cnc3nc(Nc4cc(C(F)(F)F)cn(C)c4=O)n(C)c3c2C#N)ccn1 [Compound 1 Form E, N-(4-((7-cyano-1-methyl-2-((1-methyl-2-oxo-5-(trifluoromethyl)-1,2-dihydropyridin-3-yl)amino)-1H-imidazo[4,5-b]pyridin-6-yl)oxy)pyridin-2-yl)acetamide]

XRPD Result after drying ([5]; listed as Form F): Form F
SMILES: CC(=O)Nc1cc(Oc2cnc3nc(Nc4cc(C(F)(F)F)cn(C)c4=O)n(C)c3c2C#N)ccn1 [Compound 1 Form F, N-(4-((7-cyano-1-methyl-2-((1-methyl-2-oxo-5-(trifluoromethyl)-1,2-dihydropyridin-3-yl)amino)-1H-imidazo[4,5-b]pyridin-6-yl)oxy)pyridin-2-yl)acetamide]
